# Reference: PMC7802075 (ACS Infectious Diseases, 2020)
# Read-outs that look alike come from different tables or passages of the source.
# Target: T1, LmjIPCS (inositol phosphorylceramide synthase from L. major) (Leishmania major, UniProt E9AFX2)
# T1 sequence (E9AFX2 1-338): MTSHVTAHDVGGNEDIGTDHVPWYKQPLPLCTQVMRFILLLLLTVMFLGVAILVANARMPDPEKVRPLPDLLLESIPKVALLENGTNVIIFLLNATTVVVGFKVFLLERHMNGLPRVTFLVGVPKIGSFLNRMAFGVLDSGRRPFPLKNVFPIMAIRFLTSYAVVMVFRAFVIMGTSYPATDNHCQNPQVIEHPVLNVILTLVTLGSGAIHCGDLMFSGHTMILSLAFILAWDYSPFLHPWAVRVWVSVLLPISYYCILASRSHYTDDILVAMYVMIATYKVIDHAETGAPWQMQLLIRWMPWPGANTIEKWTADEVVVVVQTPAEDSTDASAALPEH
# Assay: biochemical
# Type: biochemical
# Design: inhibition: dose or concentration left out as unconfirmed
# Conditions: for inhibition: read-out: inhibition LmjIPCS; for inhibition at 20000 µM: read-out: 20mM inhibition LmjIPCS
# [1] = NINDS set screen, single concentration printed as 20mM
# [2] = screening of NINDS set, sheet Screen 1
smiles,measurement,setting,value
CCCNC(=O)NS(=O)(=O)c1ccc(Cl)cc1 [CHLORPROPAMIDE],20mM inhibition LmjIPCS,[1],55%
CN(C)[C@@H]1C(O)=C(C(N)=O)C(=O)[C@@]2(O)C(O)=C3C(=O)c4c(O)ccc(Cl)c4[C@@](C)(O)[C@H]3C[C@@H]12 [CHLORTETRACYCLINE],20mM inhibition LmjIPCS,,56%
NS(=O)(=O)c1cc(C2(O)NC(=O)c3ccccc32)ccc1Cl (centres unmarked) [CHLORTHALIDONE],20mM inhibition LmjIPCS,,42%
CC(C)=CC1C(C(=O)O)C1(C)C (centres unmarked) [CHRYSANTHEMIC ACID],20mM inhibition LmjIPCS,[1],69%
O=c1cc(-c2ccccc2)oc2cc(O)cc(O)c12 [CHRYSIN],inhibition,,22%
Cc1cc(C2CCCCC2)n(O)c(=O)c1 [CICLOPIROX OLAMINE],20mM inhibition LmjIPCS,[1],66%
O=C1CCc2cc(OCCCCc3nnnn3C3CCCCC3)ccc2N1 [CILOSTAZOL],inhibition,NINDS set screen,14%
CN/C(=N/CCSCc1nc[nH]c1C)NC#N [CIMETIDINE],inhibition at 20000 µM,,-0.386%
CC12CCC(CC1)C(C)(C)O2 [CINEOLE],inhibition,NINDS set screen,-13%
CCn1nc(C(=O)O)c(=O)c2cc3c(cc21)OCO3 [CINOXACIN],20mM inhibition LmjIPCS,,53%
O=C(O)c1cn(C2CC2)c2cc(N3CCNCC3)c(F)cc2c1=O [CIPROFLOXACIN],inhibition at 20000 µM,,3%
N.N.[Cl][Pt][Cl] [CISPLATIN],20mM inhibition LmjIPCS,"NINDS set screen, compound at 20mM (so in the source)",21%
C[N+](C)(C)CCOP(=O)(O)OP(=O)([O-])OC[C@H]1O[C@@H](n2ccc(N)nc2=O)[C@H](O)[C@@H]1O [CITICOLINE],inhibition at 20000 µM,,0.108%
CC(=O)NC1CCSC1=O (centres unmarked) [CITIOLONE],inhibition,NINDS set screen,-8%
COc1cc(OC)c2ccc(=O)oc2c1 [CITROPTEN],inhibition,[2],2.18%
CC[C@H]1OC(=O)[C@H](C)[C@@H](O[C@H]2C[C@@](C)(OC)[C@@H](O)[C@H](C)O2)[C@H](C)[C@@H](O[C@@H]2O[C@H](C)C[C@H](N(C)C)[C@H]2O)[C@](C)(OC)C[C@@H](C)C(=O)[C@H](C)[C@@H](O)[C@]1(C)O [CLARITHROMYCIN],inhibition,[2],5.71%
COc1cc(N)c(Cl)cc1C(=O)NC1CCN(Cc2ccccc2)CC1 [CLEBOPRIDE],20mM inhibition LmjIPCS,[1],47%
C[N+]12CCC(CC1)C(OC(=O)C(O)(c1ccccc1)c1ccccc1)C2 (centres unmarked) [CLIDINIUM BROMIDE],20mM inhibition LmjIPCS,,54%
CCC(=O)O[C@]1(C(=O)CCl)[C@@H](C)C[C@H]2[C@@H]3CCC4=CC(=O)C=C[C@]4(C)[C@@]3(F)[C@@H](O)C[C@@]21C [CLOBETASOL PROPRIONATE],20mM inhibition LmjIPCS,,17%
CC(C)(Oc1ccc(Cl)cc1)C(=O)O [CLOFIBRIC ACID],20mM inhibition LmjIPCS,,56%
CC(C)(C)CC(C)(C)c1ccc(O)c(Cc2ccc(Cl)cc2Cl)c1 [CLOFOCTOL],20mM inhibition LmjIPCS,[1],65%
Clc1cccc(Cl)c1N=C1NCCN1 [CLONIDINE],20mM inhibition LmjIPCS,,43%
Clc1ccc(C(OCCN2CCCCC2)c2ccccc2)cc1 (centres unmarked) [CLOPERASTINE],inhibition,NINDS set screen,13%
COC(=O)[C@H](c1ccccc1Cl)N1CCc2sccc2C1 [CLOPIDOGREL],inhibition at 20000 µM,,32%
Cc1nc(C)c(Cl)c(O)c1Cl [CLOPIDOL],inhibition,[2],7%
Cc1onc(-c2ccccc2Cl)c1C(=O)N[C@@H]1C(=O)N2[C@@H]1SC(C)(C)[C@@H]2C(=O)O [CLOXACILLIN],20mM inhibition LmjIPCS,,45%
Oc1ccc(Cl)c2cccnc12 [CLOXYQUIN],20mM inhibition LmjIPCS,[1],59%
COc1cc2c(c(OC)c1OC)-c1ccc(=O)c(O)cc1[C@@H](NC(C)=O)CC2 [COLCHICEINE],inhibition at 20000 µM,,9%
C=C[C@@]1(C)CC(=O)[C@]2(O)[C@@]3(C)[C@@H](O)CCC(C)(C)[C@@H]3[C@H](O)[C@H](OC(C)=O)[C@@]2(C)O1 [COLFORSIN],20mM inhibition LmjIPCS,[1],51%
C[C@@H]1O[C@@H](O[C@H]2CC[C@]3(C=O)[C@H]4CC[C@]5(C)[C@@H](C6=CC(=O)OC6)CC[C@]5(O)[C@@H]4CC[C@]3(O)C2)[C@H](O)[C@H](O)[C@H]1O [CONVALLATOXIN],inhibition at 20000 µM,,16%
COc1cc2cc3c4cc(OC)c(OC)cc4cc[n+]3c(C)c2cc1OC [CORALYNE],inhibition,NINDS set screen,-5%
CC(=O)OCC(=O)[C@@]1(O)CC[C@H]2[C@@H]3CCC4=CC(=O)CC[C@]4(C)[C@H]3C(=O)C[C@@]21C [CORTISONE ACETATE],20mM inhibition LmjIPCS,,62%
CN1C(=O)CC[C@H]1c1cccnc1 [COTININE],20mM inhibition LmjIPCS,,34%
CN1CC(=O)NC1=N [CREATININE],inhibition,NINDS set screen,15%
O=C(O)c1cc(=O)c2c(OCC(O)COc3cccc4oc(C(=O)O)cc(=O)c34)cccc2o1 [CROMOLYN],inhibition,,0.579%
CC(C)(O)CC[C@@H](O)[C@](C)(O)[C@H]1CC[C@@]2(O)C3=CC(=O)[C@@H]4C[C@@H](O)[C@@H](O)C[C@]4(C)[C@H]3CC[C@]12C [CRUSTECDYSONE],inhibition,NINDS set screen,-3.51%
COc1cc(/C=C/C(=O)CC(=O)/C=C/c2ccc(O)c(OC)c2)ccc1O [CURCUMIN],inhibition at 20000 µM,,-10%
CN1CCN(C(c2ccccc2)c2ccccc2)CC1 [CYCLIZINE],20mM inhibition LmjIPCS,,58%
CN(C)CCC=C1c2ccccc2C=Cc2ccccc21 [CYCLOBENZAPRINE],inhibition at 20000 µM,,-2.37%
NC1=NCCN1CC(=O)O [CYCLOCREATINE],inhibition,[2],11%
NC1(C(=O)O)CCCC1 [CYCLOLEUCINE],inhibition at 20000 µM,,12%
CN(C)CCOC(=O)C(c1ccccc1)C1(O)CCCC1 (centres unmarked) [CYCLOPENTOLATE],inhibition,NINDS set screen,16%
O=P1(N(CCCl)CCCl)NCCCO1 (centres unmarked) [CYCLOPHOSPHAMIDE],inhibition at 20000 µM,,-0.87%
N[C@@H]1CON=C1O [CYCLOSERINE],inhibition,,-1.4%
CC(=O)[C@@]1(O)CC[C@H]2[C@@H]3C=C(Cl)C4=CC(=O)[C@@H]5C[C@@H]5[C@]4(C)[C@H]3CC[C@@]21C [CYPROTERONE],20mM inhibition LmjIPCS,"single concentration 20mM as printed, screening of NINDS set, sheet Screen 1",10%
NCCSSCCN [CYSTAMINE],inhibition,[2],6.34%
Nc1ccn([C@@H]2O[C@H](CO)[C@@H](O)[C@@H]2O)c(=O)n1 [CYTARABINE],inhibition,,-1.69%
O=c1cccc2n1C[C@@H]1CNC[C@H]2C1 [CYTISINE],inhibition at 20000 µM,,9%
N[C@H](Cc1ccccc1)C(=O)O [D-PHENYLALANINE],inhibition,[2],9%
C#C[C@]1(O)CC[C@H]2[C@@H]3CCC4=Cc5oncc5C[C@]4(C)[C@H]3CC[C@@]21C [DANAZOL],inhibition,,19%
Nc1ccc(S(=O)(=O)c2ccc(N)cc2)cc1 [DAPSONE],inhibition,,1.23%
CC(=O)N(O)CCCCCNC(=O)CCC(=O)N(O)CCCCCNC(=O)CCC(=O)N(O)CCCCCN [DEFEROXAMINe],inhibition,,-4.52%
CCN1C[C@]2(C)CC[C@H](OC)[C@@]34C1[C@]1(OCO[C@@]15C[C@H](OC)[C@H]1C[C@]3(O)[C@@H]5[C@H]1OC)[C@@H](OC(C)=O)[C@H]24 [DELTALINE],inhibition at 20000 µM,,22%
CN(C)[C@@H]1C(O)=C(C(N)=O)C(=O)[C@@]2(O)C(O)=C3C(=O)c4c(O)ccc(Cl)c4[C@@H](O)[C@H]3C[C@@H]12 [DEMECLOCYCLINE],inhibition at 20000 µM,,-2%
COc1ccc(-c2cc(C(F)F)nn2-c2ccc(S(N)(=O)=O)cc2)cc1F [DERACOXIB],inhibition at 20000 µM,,28%
CNCCCN1c2ccccc2CCc2ccccc21 [DESIPRAMINE],20mM inhibition LmjIPCS,,64%
CC(=O)OCC(=O)[C@H]1CC[C@H]2[C@@H]3CCC4=CC(=O)CC[C@]4(C)[C@H]3CC[C@]12C [DESOXYCORTICOSTERONE ACETATE],inhibition at 20000 µM,,17%
CC(=O)OCC(=O)[C@@]1(O)[C@H](C)C[C@H]2[C@@H]3CCC4=CC(=O)C=C[C@]4(C)[C@@]3(F)[C@@H](O)C[C@@]21C [DEXAMETHASONE ACETATE],inhibition at 20000 µM,,-3.4%
C[C@@H]1C[C@H]2[C@@H]3CCC4=CC(=O)C=C[C@]4(C)[C@@]3(F)[C@@H](O)C[C@]2(C)[C@@]1(O)C(=O)CO [DEXAMETHASONE],20mM inhibition LmjIPCS,,44%
same,inhibition,,-4%
COc1ccc2c(c1)[C@]13CCCC[C@@H]1[C@H](C2)N(C)CC3 [DEXTROMETHORPHAN],20mM inhibition LmjIPCS,,64%
C=CCSCC=C [DIALLYL SULFIDE],inhibition,NINDS set screen,17%
CC1=NS(=O)(=O)c2cc(Cl)ccc2N1 [DIAZOXIDE],inhibition at 20000 µM,,5%
c1ccc2c(c1)sc1ccccc12 [DIBENZOTHIOPHENE],inhibition at 20000 µM,,32%
O=C(CC(=O)c1ccccc1)c1ccccc1 [DIBENZOYLMETHANE],20mM inhibition LmjIPCS,,44%
CCCCOc1cc(C(=O)NCCN(CC)CC)c2ccccc2n1 [DIBUCAINE],20mM inhibition LmjIPCS,,63%
O=C(O)Cc1ccccc1Nc1c(Cl)cccc1Cl [DICLOFENAC],inhibition,,-6.5%
Cc1onc(-c2c(Cl)cccc2Cl)c1C(=O)N[C@@H]1C(=O)N2[C@@H]1SC(C)(C)[C@@H]2C(=O)O [DICLOXACILLIN],inhibition at 20000 µM,,2.55%
O=c1oc2ccccc2c(O)c1Cc1c(O)c2ccccc2oc1=O [DICUMAROL],inhibition,,-3%
C/C=C(/C(=C/C)c1ccc(O)cc1)c1ccc(O)cc1 [DIENESTROL],inhibition at 20000 µM,,-4%
CCN(CC)C(=O)N1CCN(C)CC1 [DIETHYLCARBAMAZINE],inhibition,,-3%
CCN(CC)C(=O)c1cccc(C)c1 [DIETHYLTOLUAMIDE],inhibition at 20000 µM,,17%
O=C(O)c1cc(-c2ccc(F)cc2F)ccc1O [DIFLUNISAL],inhibition at 20000 µM,,-4.4%
C[C@H]1O[C@@H](O[C@H]2[C@@H](O)C[C@H](O[C@H]3[C@@H](O)C[C@H](O[C@H]4CC[C@@]5(C)[C@H](CC[C@@H]6[C@@H]5CC[C@]5(C)[C@@H](C7=CC(=O)OC7)CC[C@]65O)C4)O[C@@H]3C)O[C@@H]2C)C[C@H](O)[C@@H]1O [DIGITOXIN],inhibition at 20000 µM,,5.28%
